Test results as given in article PMC10122656, “Siglec-6 mediates the uptake of extracellular vesicles through a noncanonical glycolipid binding pocket” (Nature Communications, 2023).
Values joined by “and” are separate entries in the source; they are usually repeats but may differ in a detail not shown here. Equal entries are not always repeated.

Legend:
Experiment in all cases: Cell assay (liposome/EV binding, flow cytometry);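 on liposome binding, fluorescence signal (replicates): AF647 fluorescence intensity from 0.1 mol% AF647–PEG45–DSPE in liposomes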
Assay type in all cases: cell-based
[1] = biological target: T1, Siglec-1 R116A CHO cells (Homo sapiens, UniProt Q9BZZ2, R116A); conditions: Sig-1 R116A; 3 mol% ganglioside liposomes; replicates
T1 construct: expressed in transfected cells
T1 sequence (Q9BZZ2 20-1709 R116A): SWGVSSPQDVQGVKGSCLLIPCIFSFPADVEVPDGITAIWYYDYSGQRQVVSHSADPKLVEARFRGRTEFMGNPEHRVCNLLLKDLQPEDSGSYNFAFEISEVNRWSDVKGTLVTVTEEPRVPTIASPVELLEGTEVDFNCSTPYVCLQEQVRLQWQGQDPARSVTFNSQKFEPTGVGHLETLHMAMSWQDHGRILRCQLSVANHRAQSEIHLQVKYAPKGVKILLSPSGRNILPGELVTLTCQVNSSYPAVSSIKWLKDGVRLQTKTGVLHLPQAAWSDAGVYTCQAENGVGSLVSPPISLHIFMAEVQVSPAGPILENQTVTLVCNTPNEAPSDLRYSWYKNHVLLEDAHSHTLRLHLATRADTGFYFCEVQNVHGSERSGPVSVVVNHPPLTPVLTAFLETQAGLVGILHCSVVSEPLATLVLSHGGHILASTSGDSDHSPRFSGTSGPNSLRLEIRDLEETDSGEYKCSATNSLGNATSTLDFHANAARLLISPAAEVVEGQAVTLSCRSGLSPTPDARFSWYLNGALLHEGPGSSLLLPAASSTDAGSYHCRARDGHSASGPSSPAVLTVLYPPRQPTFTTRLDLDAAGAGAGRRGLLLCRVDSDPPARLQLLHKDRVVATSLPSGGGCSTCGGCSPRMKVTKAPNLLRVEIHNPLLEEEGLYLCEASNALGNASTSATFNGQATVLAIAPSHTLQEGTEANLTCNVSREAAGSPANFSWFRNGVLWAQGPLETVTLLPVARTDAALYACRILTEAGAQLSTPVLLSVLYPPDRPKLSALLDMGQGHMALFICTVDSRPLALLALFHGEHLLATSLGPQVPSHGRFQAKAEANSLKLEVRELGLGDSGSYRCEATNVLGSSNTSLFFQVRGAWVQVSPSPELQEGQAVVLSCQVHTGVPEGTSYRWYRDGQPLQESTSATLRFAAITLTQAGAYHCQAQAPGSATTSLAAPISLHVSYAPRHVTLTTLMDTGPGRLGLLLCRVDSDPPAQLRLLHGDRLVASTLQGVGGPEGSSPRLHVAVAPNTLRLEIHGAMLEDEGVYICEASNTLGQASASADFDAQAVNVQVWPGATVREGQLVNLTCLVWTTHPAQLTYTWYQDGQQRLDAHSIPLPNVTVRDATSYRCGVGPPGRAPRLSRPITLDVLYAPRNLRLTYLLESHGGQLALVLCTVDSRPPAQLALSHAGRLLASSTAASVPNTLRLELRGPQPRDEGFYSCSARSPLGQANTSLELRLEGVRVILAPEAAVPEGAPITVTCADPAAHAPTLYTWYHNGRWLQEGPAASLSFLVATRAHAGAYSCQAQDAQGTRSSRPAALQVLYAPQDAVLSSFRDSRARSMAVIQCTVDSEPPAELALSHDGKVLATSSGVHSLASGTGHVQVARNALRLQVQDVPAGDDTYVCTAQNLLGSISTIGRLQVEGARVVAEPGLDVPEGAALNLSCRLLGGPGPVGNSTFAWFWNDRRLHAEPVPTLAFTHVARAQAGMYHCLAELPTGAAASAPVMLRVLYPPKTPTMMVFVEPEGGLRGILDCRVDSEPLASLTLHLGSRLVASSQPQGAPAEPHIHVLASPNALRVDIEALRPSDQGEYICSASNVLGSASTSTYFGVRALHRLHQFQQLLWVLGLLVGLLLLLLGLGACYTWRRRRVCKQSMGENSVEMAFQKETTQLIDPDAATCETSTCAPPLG
Description: (§1) Stock lipids (DSPC, Cholesterol, PEG45–DSPE) solutions were prepared by solvating the lipids in chloroform. An appropriate volume of each lipid solution was transferred to a glass test tube to reach the desired mol% of the component. The chloroform was then removed under N2 gas to yield a lipid thin film. Once dry, 100 µL of DMSO was added to the lipid-containing test tube and then the functional lipids (ganglioside, AF647–PEG45–DSPE, Siglec ligand–PEG45–DSPE, pHrodo–PEG45–DSPE, NGL) was added from their respect DMSO stock solution. The lipid mixture was then stored at −80 °C until completely frozen at which point excess DMSO was removed via lyophilization. Dry lipids were then stored at −80 °C until they were extruded. Lipid suppliers can be found in Supplementary Table 4.
(§2) Dry lipids were then hydrated in 1 mL of PBS. The lipids were then sonicated in a bath sonicator in a cycle of 1 min on, 5 min off for a total of five cycles. Liposomes were then extruded using an Avanti mini extruder first using an 800 nm filter and then a 100 nm filter yielding liposomes that were 130 ± 35 nm (Supplementary Table 5) measured using a Malvern Panalytical Zetasizer Nano S. Liposomes were stored at 4 °C.
(§3) 200,000 cells/well were plated into a 96-well U-bottom microplate and centrifuged at 300 × g for 5 min. The cells were then resuspended in 50 µL of 50 µM liposome/50 µg/mL (protein concentration) of EV solution in DMEM F12 5% FBS and incubated at 37 °C for 30 min. Excess liposomes were then removed via centrifuged at 300 × g for 5 min followed by washing the cells with FACS solution. The cells were then resuspended in (1:250 V/V) anti-Siglec-flow buffer (1% V/V FBS, 500 µM, EDTA Hank’s Balanced Salt Solution pH 7.4), solution and left to rest on ice for 30 min. The cells were then centrifuged again at 300 × g for 5 min and the cells were resuspended in FACS buffer solution and were then ready for analysis by flow cytometry. Information regarding antibody clone, catalog number supplier, label isotype, and dilution can be found in Supplementary Table 6. The Siglec-positive cells were gated on for liposome-binding analysis (Supplementary Fig. 1b).
(§4) Flow cytometry measurements were collected on a 5-laser Fortessa X-20 (BD Bioscience). All the resulting data were analyzed using FlowJo (10.5.3) software (BD Biosciences).

[2] = biological target: T2, CD22 WT CHO cells (Homo sapiens, UniProt P20273); conditions: 3 mol% ganglioside liposomes, replicates
T2 construct: expressed in transfected cells
T2 sequence (P20273 20-847): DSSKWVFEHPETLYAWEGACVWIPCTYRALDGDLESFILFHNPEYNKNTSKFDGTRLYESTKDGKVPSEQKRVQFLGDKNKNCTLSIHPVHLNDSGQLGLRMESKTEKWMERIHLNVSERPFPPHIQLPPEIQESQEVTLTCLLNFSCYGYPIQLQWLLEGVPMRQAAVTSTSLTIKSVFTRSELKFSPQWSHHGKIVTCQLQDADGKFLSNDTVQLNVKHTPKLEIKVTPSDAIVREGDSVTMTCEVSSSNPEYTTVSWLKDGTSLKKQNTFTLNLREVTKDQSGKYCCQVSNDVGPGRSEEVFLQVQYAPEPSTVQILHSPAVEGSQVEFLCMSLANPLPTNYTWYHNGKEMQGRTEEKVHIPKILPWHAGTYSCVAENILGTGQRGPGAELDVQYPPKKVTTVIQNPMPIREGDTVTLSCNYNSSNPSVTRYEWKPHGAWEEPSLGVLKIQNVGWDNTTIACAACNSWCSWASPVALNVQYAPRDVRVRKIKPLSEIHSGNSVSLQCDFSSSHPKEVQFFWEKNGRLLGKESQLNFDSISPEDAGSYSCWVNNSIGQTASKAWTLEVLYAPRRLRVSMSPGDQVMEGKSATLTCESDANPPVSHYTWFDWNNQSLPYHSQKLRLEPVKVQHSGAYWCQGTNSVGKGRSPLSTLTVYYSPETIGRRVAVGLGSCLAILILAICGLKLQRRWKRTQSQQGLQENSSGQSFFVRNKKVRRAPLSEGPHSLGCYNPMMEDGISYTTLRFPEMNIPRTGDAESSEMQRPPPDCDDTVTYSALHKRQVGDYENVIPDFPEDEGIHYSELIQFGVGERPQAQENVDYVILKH
Description: as §1, §2, §3, §4

[3] = biological target: T3, Siglec-11 R120A CHO cells (Homo sapiens, UniProt Q96RL6, R132A); conditions: Sig-11 R120A; 3 mol% ganglioside liposomes; replicates
T3 construct: expressed in transfected cells
T3 sequence (Q96RL6 28-698 R132A): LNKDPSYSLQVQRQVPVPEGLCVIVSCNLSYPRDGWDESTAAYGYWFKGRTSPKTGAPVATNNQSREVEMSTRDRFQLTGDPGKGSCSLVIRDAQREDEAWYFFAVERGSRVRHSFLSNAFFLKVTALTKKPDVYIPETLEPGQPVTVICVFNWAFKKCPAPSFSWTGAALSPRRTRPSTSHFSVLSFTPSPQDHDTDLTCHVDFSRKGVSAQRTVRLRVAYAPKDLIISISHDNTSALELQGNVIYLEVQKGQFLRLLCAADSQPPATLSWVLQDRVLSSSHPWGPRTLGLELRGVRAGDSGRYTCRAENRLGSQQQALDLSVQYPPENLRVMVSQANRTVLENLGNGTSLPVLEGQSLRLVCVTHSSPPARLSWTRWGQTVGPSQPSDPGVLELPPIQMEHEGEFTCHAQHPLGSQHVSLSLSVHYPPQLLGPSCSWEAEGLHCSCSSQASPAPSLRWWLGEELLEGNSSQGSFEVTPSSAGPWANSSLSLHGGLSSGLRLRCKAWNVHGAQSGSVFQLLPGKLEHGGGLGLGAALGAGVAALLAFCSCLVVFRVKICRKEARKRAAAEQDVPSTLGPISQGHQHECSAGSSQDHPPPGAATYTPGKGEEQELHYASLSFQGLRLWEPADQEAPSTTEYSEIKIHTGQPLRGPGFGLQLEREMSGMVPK
Description: as §1, §2, §3, §4

[4] = biological target: T4, Siglec-8 WT CHO cells (Homo sapiens, UniProt Q9NYZ4); conditions: Sig-8 WT; 3 mol% ganglioside liposomes; replicates
T4 construct: expressed in transfected cells
T4 sequence (Q9NYZ4 17-499): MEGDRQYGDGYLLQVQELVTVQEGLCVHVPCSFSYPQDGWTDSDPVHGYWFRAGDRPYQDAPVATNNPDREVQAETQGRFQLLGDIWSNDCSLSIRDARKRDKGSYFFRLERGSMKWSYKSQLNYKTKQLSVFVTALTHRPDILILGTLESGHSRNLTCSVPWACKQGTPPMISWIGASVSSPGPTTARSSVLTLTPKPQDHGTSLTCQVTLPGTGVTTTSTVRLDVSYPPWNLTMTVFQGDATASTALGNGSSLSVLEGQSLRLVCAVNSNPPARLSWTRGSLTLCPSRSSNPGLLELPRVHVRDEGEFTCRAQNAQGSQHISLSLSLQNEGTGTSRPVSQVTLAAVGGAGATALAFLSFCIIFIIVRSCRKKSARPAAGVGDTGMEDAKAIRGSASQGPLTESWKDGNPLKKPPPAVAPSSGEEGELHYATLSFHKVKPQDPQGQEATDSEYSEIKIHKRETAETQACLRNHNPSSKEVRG
Description: as §1, §2, §3, §4

[5] = biological target: T5, WT Siglec-6 CHO cells (Homo sapiens, UniProt O43699); conditions: for log10(MFI AF647) of GLL relative to log10(MFI AF647) of the same GLL against UT CHO cells (Fig. 2a): Sig-6 WT, 3 mol% ganglioside liposomes;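 on liposome binding, fluorescence signal (replicates): AF647 fluorescence intensity from 0.1 mol% AF647–PEG45–DSPE in liposomes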
T5 construct: expressed in transfected cells
T5 sequence (O43699 27-453): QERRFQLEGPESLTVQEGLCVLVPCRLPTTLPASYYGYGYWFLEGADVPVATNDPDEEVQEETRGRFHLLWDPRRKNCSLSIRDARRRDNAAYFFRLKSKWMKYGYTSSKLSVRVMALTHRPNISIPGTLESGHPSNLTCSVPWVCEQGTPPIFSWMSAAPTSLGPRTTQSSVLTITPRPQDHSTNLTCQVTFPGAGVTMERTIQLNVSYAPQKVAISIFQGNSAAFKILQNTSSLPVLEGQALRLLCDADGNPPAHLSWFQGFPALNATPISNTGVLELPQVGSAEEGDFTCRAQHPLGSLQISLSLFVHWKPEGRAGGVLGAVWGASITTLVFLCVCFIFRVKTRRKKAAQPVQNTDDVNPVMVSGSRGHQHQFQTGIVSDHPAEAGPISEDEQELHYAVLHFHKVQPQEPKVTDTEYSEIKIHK
Description: as §1, §2, §3, §4

[6] = biological target: T6, CD33 WT CHO cells (Homo sapiens, UniProt P20138); conditions: 3 mol% ganglioside liposomes, replicates
T6 construct: expressed in transfected cells
T6 sequence (P20138 18-364): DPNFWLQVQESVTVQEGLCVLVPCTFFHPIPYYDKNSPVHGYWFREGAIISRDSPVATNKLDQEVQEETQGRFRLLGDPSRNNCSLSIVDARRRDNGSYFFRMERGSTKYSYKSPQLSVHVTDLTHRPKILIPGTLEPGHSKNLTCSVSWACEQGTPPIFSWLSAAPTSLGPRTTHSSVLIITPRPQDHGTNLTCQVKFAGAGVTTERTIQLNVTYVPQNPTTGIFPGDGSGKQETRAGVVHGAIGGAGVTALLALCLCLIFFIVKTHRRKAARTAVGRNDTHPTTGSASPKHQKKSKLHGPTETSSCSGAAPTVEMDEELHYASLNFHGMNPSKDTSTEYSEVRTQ
Description: as §1, §2, §3, §4

[7] = sheet Figure S17, cells not given, three experiments, each with its own Naked control

Compound | log10(MFI AF647) of GLL relative to log10(MFI AF647) of the same GLL against UT CHO cells (Fig. 2a) [1] | log10(MFI AF647) of GLL relative to log10(MFI AF647) of the same GLL against UT CHO cells (Fig. 2a) [2] | log10(MFI AF647) of GLL relative to log10(MFI AF647) of the same GLL against UT CHO cells (Fig. 2a) [3] | log10(MFI AF647) of GLL relative to log10(MFI AF647) of the same GLL against UT CHO cells (Fig. 2a) [4] | log10(MFI AF647) of GLL relative to log10(MFI AF647) of the same GLL against UT CHO cells (Fig. 2a) ([5]; replicates) | log10(MFI AF647) of GLL relative to log10(MFI AF647) of the same GLL against UT CHO cells (Fig. 2a) [6] | also measured
GD1a | -0.06 (2×) and -0.02 and -0.08 | 0.06 (2×) and 0.03 and 0.05 | -0.11 and -0.13 and -0.12 (2×) | -0.17 and -0.14 and -0.12 and -0.13 | 0.57 (2×) and 0.56 (2×) | -0.09 and -0.06 and -0.03 and 0.01 | 
GM4 | -0.09 and -0.12 and -0.06 and -0.1 | 0.05 (2×) and 0.06 and 0.07 | -0.11 (2×) and -0.1 (2×) | -0.15 (2×) and -0.14 and -0.13 | 0.02 (2×) and 0.05 and 0.04 | -0.13 and -0.11 and -0.09 and -0.02 | 
CCCCCCCCCCCCCCCCOCC(COCCCCCCCCCCCCCCCC)OCc1cn(CCO[C@@H]2O[C@H](CO)[C@@H](O[C@@H]3O[C@H](CO)[C@H](O)[C@H](O[C@]4(C(=O)O)C[C@H](O)[C@@H](NC(C)=O)[C@H]([C@H](O)[C@H](O)CO)O4)[C@H]3O)[C@H](O)[C@H]2O)nn1 [GM3-DAG] |  |  |  |  |  |  | liposome binding, fluorescence signal (replicates) ([5]; sheet Figure S22b, Sig-6): 1899 and 2014 and 1894 and 1967; liposome binding, fluorescence signal (replicates) ([5]; sheet Figure S26a, 3% GM3-DAG liposomes, WT): 5874 and 5544 and 5060 and 6703; liposome binding, fluorescence signal (replicates) ([5]; sheet Figure S28b, 3% GM3-DAG liposomes, WT): 2153 and 2258 and 2285 and 2102; liposome binding, fluorescence signal (replicates) ([5]; sheet Figure S26d, WT): 1302 and 879 and 1034 and 1211
CCCCCCCCCCCCCCCCOCC(COCCCCCCCCCCCCCCCC)OCc1cn(CCO[C@@H]2O[C@H](CO)[C@@H](O[C@@H]3O[C@H](CO)[C@H](O)[C@H](O[C@]4(C(=O)O)C[C@H](O)[C@@H](NC(C)=O)[C@H]([C@H](O)[C@H](O)CO)O4)[C@H]3O)[C@H](O)[C@H]2O)nn1 [nGL 5] |  |  |  |  |  |  | nGLL binding to WT Siglec-6 CHO cells (in words) ([5]; 3 mol% nGL in liposomes): relatively high binding; Binding of nGL liposomes to WT Siglec-6 CHO cells relative to naked liposomes (Fig. 3e) ([5]; 3 mol% nGL, replicates): 13.1 and 10.8 and 11.4 and 14; Binding of nGL liposomes relative to liposomes formulated with 3 mol% nGL 5 (Fig. 3g) ([5]; WT Siglec-6 CHO cells, 3 mol% nGL, replicates): 0.93 and 1.01 and 1.13; fold difference in binding to Siglec-6 between 5 and GM3 ([5]; cell assay (liposomal display)): 34 fold; liposome binding, fluorescence signal (replicates) [5, 7]: 3983 and 3299 and 3469 and 4281; liposome binding, fluorescence signal (replicates) ([5]; sheet Figure S18a, cells not given): 2909 and 2902 and 3112 and 3410; optimal content of 5 in liposomes for engaging Siglec-6 ([5]; titration in cell assay and bead assay): 5 mol%
GM3 | -0.19 and -0.23 and -0.18 and -0.21 | -0.16 and -0.15 (3×) | -0.13 (3×) and -0.12 | -0.22 and -0.18 and -0.2 and -0.17 | -0.2 (2×) and -0.19 and -0.17 | -0.19 and -0.14 and -0.12 and -0.08 | Binding of liposomes to WT Siglec-6 CHO cells relative to liposomes formulated without a ligand (Fig. 3c) ([5]; 3 mol% glycolipid, Cer = native ganglioside, Amide = amide-linked nGL, replicates, listed as GM3 Cer): 0.344 and 0.335 and 0.365 and 0.403; liposome binding, fluorescence signal (replicates) [5, 7]: 274 and 267 and 291 and 321
GQ1b | -0.29 and -0.27 and -0.24 and -0.3 | -0.05 (3×) and -0.04 | -0.19 (2×) and -0.22 and -0.18 | -0.02 (2×) and -0.04 and 0.24 | 0.57 and 0.55 and 0.54 and 0.56 | -0.12 (2×) and -0.14 and -0.09 | 
GT1b | -0.14 (2×) and -0.15 and -0.1 | 0.06 (2×) and 0.04 and 0.05 | -0.17 (2×) and -0.16 and -0.19 | -0.21 and -0.22 and -0.23 and -0.19 | 0.81 and 0.79 and 0.8 (2×) | -0.09 and -0.1 and -0.08 and -0.06 | 
GD1b | -0.26 (2×) and -0.25 and -0.21 | -0.04 and -0.05 and -0.06 (2×) | -0.11 (2×) and -0.12 (2×) | -0.17 (2×) and -0.15 (2×) | 0.23 and 0.21 (2×) and 0.22 | -0.13 and -0.1 (2×) and -0.07 | 
